EC50 and Activity data for 21 compounds are collected here from ChEMBL document CHEMBL2203276, “Design, synthesis and evaluation of novel zwitterionic compounds as PPARα/γ dual agonists (1)” (Bioorg Med Chem Lett, 2012).

As a reminder, the EC50 is the concentration that produces a half-maximal response.

Series [1] addresses T1, Peroxisome proliferator-activated receptor gamma (Homo sapiens, UniProt P37231).
T1 sequence (P37231 whole entry): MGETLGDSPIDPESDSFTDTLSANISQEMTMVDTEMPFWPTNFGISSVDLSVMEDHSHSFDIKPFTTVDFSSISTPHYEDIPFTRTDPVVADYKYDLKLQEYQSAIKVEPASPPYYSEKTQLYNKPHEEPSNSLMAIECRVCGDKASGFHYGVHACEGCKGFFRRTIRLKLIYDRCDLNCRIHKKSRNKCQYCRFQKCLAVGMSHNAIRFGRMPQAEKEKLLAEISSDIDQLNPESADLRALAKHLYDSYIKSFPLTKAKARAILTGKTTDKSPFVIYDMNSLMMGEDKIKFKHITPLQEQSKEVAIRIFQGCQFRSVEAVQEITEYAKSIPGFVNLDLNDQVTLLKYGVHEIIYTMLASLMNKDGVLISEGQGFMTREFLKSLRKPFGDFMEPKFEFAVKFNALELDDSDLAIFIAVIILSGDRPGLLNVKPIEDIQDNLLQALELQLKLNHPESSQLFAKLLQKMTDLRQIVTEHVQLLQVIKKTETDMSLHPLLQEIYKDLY
In kind it is functional, cell-based.
Description: Agonist activity at GAL4-fused PPARgamma assessed as transcriptional activity by cell based assay

The target in series [2] is T2, Peroxisome proliferator-activated receptor alpha (Homo sapiens, UniProt Q07869).
T2 sequence (Q07869 whole entry): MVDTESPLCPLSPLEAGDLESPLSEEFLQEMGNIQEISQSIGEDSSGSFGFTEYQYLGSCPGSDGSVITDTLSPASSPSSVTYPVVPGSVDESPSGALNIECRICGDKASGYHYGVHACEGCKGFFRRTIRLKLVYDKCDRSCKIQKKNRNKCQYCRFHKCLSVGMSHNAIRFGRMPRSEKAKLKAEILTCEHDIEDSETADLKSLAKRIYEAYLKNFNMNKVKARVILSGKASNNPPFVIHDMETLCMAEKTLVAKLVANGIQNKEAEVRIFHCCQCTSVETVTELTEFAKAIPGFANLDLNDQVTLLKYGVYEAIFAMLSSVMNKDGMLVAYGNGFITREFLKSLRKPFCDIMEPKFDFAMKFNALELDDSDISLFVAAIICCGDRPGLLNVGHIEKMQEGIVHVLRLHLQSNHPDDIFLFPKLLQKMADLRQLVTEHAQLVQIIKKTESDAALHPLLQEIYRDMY
Kind of series: Agonist activity at GAL4-fused PPARalpha assessed as transcriptional activity by cell based assay. In kind it is functional.

In series [3] the test system is Mus musculus. Kind of series: Toxicity in db/db mouse type 2 diabetic model assessed as reduction of body weight at 10 mg/kg, po administered for 14 days. It counts as organism-based. More on the design: dose 10 mg/kg, route oral; scale not given: the % may be the effect or the level left. The following applies: in vivo, 336 h.
The test system of series [4] is Mus musculus. Kind of series: Antidiabetic activity in db/db mouse type 2 diabetic model assessed as reduction of plasma triglyceride level at 10 mg/kg, po administered for 14 days. It counts as functional. More on the design: scale not given: the % may be the effect or the level left.
Series [5] relates to Mus musculus. Kind of series: Antidiabetic activity in db/db mouse type 2 diabetic model assessed as reduction of plasma glucose level at 10 mg/kg, po administered for 14 days. More on the design: scale not given: the % may be the effect or the level left. It counts as functional.
Series [6] has as its system Mus musculus. Kind of series: Toxicity in db/db mouse type 2 diabetic model assessed as reduction of body weight at 30 mg/kg, po administered for 14 days. In kind it is organism-based. More on the design: dose 30 mg/kg, route oral; scale not given: the % may be the effect or the level left. The note with it: in vivo, 336 h.
Series [7] concerns Mus musculus. Kind of series: Antidiabetic activity in db/db mouse type 2 diabetic model assessed as reduction of plasma triglyceride level at 30 mg/kg, po administered for 14 days. In kind it is functional. More on the design: scale not given: the % may be the effect or the level left.
Series [8] relates to Mus musculus. Kind of series: Antidiabetic activity in db/db mouse type 2 diabetic model assessed as reduction of plasma glucose level at 30 mg/kg, po administered for 14 days. It counts as functional. More on the design: scale not given: the % may be the effect or the level left.

A value given as a limit tells only on which side of the number the result lay.

Regarding `Cc1oc(-c2ccccc2)nc1CN(Cc1ccco1)Cc1ccc(OC(C)(C)C(=O)O)cc1Cl`, the results for the EC50 in series [1] and in series [2] were 0.89 µM and 0.036 µM, respectively.
On the same counts, the results for `COc1cc(OC(C)(C)C(=O)O)ccc1CN(Cc1ccco1)Cc1nc(-c2ccccc2)oc1C` are 0.33 µM and 0.032 µM.
With `Cc1cc(CN(Cc2ccco2)Cc2nc(-c3ccccc3)oc2C)cc(C)c1OC(C)(C)C(=O)O`, the values for the Activity in series [3], in series [4] and in series [5] were -7.6%, 88% and 74%, respectively. The EC50 in series [1] was found to be 0.0047 µM; in series [2] it was 0.0017 µM.
Regarding `COc1cc(CN(Cc2ccco2)Cc2nc(-c3ccccc3)oc2C)ccc1OC(C)(C)C(=O)O`, the EC50 in series [1] came to 0.18 µM; in series [2], 0.009 µM.
The like results for `Cc1cc(CN(Cc2ccco2)Cc2nc(-c3ccccc3)oc2C)ccc1OC(C)(C)C(=O)O` were, in that order, 0.042 µM and 0.0039 µM.
Consider `Cc1oc(-c2ccccc2)nc1CN(Cc1ccc(OC(C)(C)C(=O)O)c(Cl)c1)Cc1ccco1`, for which the results for the EC50 in series [1] and in series [2] were 0.071 µM and 0.0051 µM, respectively.
The like results for `Cc1oc(-c2ccccc2)nc1CN(Cc1ccc(OC(C)(C)C(=O)O)cc1)Cc1ccco1` were, in that order, 0.67 µM and 0.013 µM.
With `Cc1oc(-c2cccc(Br)c2)nc1CN(Cc1ccc(OC(C)(C)C(=O)O)cc1)Cc1ccco1`, the EC50 amounted to 0.31 µM in series [1] and 0.0081 µM in series [2].
The like results for `Cc1oc(-c2cccc(Br)c2)nc1CN(Cc1ccc(OC(C)(C)C(=O)O)cc1)C(=O)c1ccccc1` were, in that order, > 25 µM and > 25 µM.
On the same counts, the results for `COc1ccc(CN(Cc2ccc(OC(C)(C)C(=O)O)cc2)Cc2nc(-c3cccc(Br)c3)oc2C)cc1` are 0.7 µM and 0.026 µM.
The like results for `CCCCN(Cc1ccc(OC(C)(C)C(=O)O)cc1)Cc1nc(-c2cccc(Br)c2)oc1C` were, in that order, 1.3 µM and 0.5 µM.
Take `Cc1oc(-c2cccc(Br)c2)nc1CN(Cc1ccccc1)Cc1ccc(OC(C)(C)C(=O)O)cc1`: the results for the EC50 in series [1] and in series [2] were 2.2 µM and 0.056 µM, respectively.
On the same counts, the results for `Cc1oc(-c2cccc(Br)c2)nc1CNCc1ccc(OC(C)(C)C(=O)O)cc1` are 7.7 µM and 0.67 µM.
On the same counts, the results for `Cc1oc(-c2ccccc2)nc1CC(=O)Nc1ccc(OC(C)(C)C(=O)O)cc1` are > 25 µM and > 25 µM.
The like results for `Cc1oc(-c2ccccc2)nc1CNCc1ccc(OC(C)(C)C(=O)O)cc1` were, in that order, > 25 µM and 10 µM.
Turning to `Cc1oc(-c2ccccc2)nc1CNc1ccc(OC(C)(C)C(=O)O)cc1`, the EC50 came to 8.8 µM in series [1] and 7.2 µM in series [2].
On the same counts, the results for `Cc1oc(-c2ccccc2)nc1CCNc1ccc(OC(C)(C)C(=O)O)cc1` are 16 µM and 5.2 µM.
On the same counts, the results for `Cc1oc(-c2cccc(Br)c2)nc1CCOc1ccc(OC(C)(C)C(=O)O)cc1` are 0.8 µM and 0.081 µM.
In the case of `Cc1oc(-c2ccccc2)nc1CCOc1ccc(OC(C)(C)C(=O)O)cc1`, the Activity in series [6] is given as 8.4%; in series [7] it was 56%; in series [8], 25%. For the same compound, the EC50 was > 25 µM in series [1] and 0.5 µM in series [2].
Take `COc1ccc(OC(=O)N(CC(=O)O)Cc2ccc(OCCc3nc(-c4ccccc4)oc3C)cc2)cc1` [MURAGLITAZAR]: the EC50 in series [2] came to 0.3 µM.
For `CN(CCOc1ccc(CC2SC(=O)NC2=O)cc1)c1ccccn1` (stereo not drawn) [ROSIGLITAZONE], the Activity in series [3] came out at 10.1%; in series [4], 58%; in series [5], 54%.
